Five compounds from publication PMC6149825, “PTP1B Inhibitors from the Entomogenous Fungi Isaria fumosorosea” (Molecules : A Journal of Synthetic Chemistry and Natural …, 2017) can be followed below.

Like-named read-outs stand apart in the source and are kept apart here.

For orientation: IC50 means the point on the concentration scale where inhibition reaches its midpoint.

The test deals with T1, PTP1B (Homo sapiens, UniProt P18031).
T1 sequence (P18031 1-435): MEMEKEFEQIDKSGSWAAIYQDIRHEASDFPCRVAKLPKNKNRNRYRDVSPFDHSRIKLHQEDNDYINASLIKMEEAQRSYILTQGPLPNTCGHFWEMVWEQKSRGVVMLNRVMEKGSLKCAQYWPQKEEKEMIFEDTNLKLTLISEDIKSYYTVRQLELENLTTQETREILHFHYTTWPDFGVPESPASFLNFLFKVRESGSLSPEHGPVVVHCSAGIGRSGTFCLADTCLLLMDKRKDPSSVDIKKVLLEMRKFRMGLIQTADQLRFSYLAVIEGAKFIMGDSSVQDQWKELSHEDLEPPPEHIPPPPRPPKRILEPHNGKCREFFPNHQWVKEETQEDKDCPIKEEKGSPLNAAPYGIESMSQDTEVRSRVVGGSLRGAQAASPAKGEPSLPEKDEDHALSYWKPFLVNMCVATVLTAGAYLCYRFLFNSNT
Description: PTP1B inhibition assay (hydrolysis of p-nitrophenyl phosphate, 96-well plate).
Description: PTP1B activity was measured as the rate of hydrolysis of p-nitrophenyl phosphate (pNPP) in a 96-well microtiter plate format [13]. […] Each experiment was performed in triplicate, and IC50 data were derived from three independent experiments.

In the case of “2-carboxymethyl-4-(3′-hydroxybutyl)furan [Compound 5]”, the IC50 (read-out: PTP1B inhibitory activity IC50, in vitro, pNPP substrate, triplicate, three independent experiments) is > 1000 µM.

On to `CCC(C)CC(C)C=C(C)C=CC=CC=C(C)C(O)=C1C(=O)NC(Cc2ccc(O)cc2)C1=O` (centres unmarked) [Compound 1, fumosorinone A], for which the concentration for half-maximal inhibition (IC50) worked out at 3.24 ± 0.37 µM. `C[C@@H]1CCC(=O)C[C@H](O)[C@@H](O)CC(=O)O1` [Compound 2, Cepharosporolides C]: the IC50 was > 1000 µM. Same read-out and setting: next, `C[C@@H]1CC[C@]2(C[C@@H]3OC(=O)C[C@@H]3O2)O1` [Compound 3, Cepharosporolides E]: > 1000 µM; `CC1CCC2(CC3OC(=O)CC3O2)O1` (centres unmarked) [Compound 4, Cepharosporolides F]: > 1000 µM.
